From patent EP4722212A1, “NOVEL COMPOUND FOR INHIBITING PROTEIN KINASES AND PHARMACEUTICAL COMPOSITION COMPRISING SAME” (Magicbullettherapeutics Co., Ltd., priority 2023, dated 2024)
Where two headings read alike, the source gives them in different places.

Columns and labels:
Test in all cases: Kinase panel
Type in all cases: biochemical
GSK3A = GSK3A (Homo sapiens, UniProt P49840); conditions: read-out: residual enzyme activity
Description: (§1) To measure the inhibitory activity of protein kinases against the compounds of the present invention, a biochemical assay was performed using a full kinase panel. The inhibitory efficacy of kinases was measured when Example compounds 8 and 51 were treated at a single concentration of 1 µM, and residual enzyme activity values were calculated. Kinases were identified when the calculated residual enzyme activity values were 40% or less, i.e., inhibited by 60% or more.

EPHB1 = EPHB1 (Homo sapiens, UniProt P54762); conditions: EPHB1, 1 µM; read-out: residual enzyme activity
Description: as §1

TAOK3/JIK = TAOK3/JIK (Homo sapiens, UniProt Q9H2K8); conditions: read-out: residual enzyme activity
Description: as §1

P70S6KB/RPS6KB2 = P70S6KB/RPS6KB2 (Homo sapiens, UniProt Q9UBS0); conditions: read-out: residual enzyme activity
Sequence of P70S6KB/RPS6KB2 (Q9UBS0 whole entry): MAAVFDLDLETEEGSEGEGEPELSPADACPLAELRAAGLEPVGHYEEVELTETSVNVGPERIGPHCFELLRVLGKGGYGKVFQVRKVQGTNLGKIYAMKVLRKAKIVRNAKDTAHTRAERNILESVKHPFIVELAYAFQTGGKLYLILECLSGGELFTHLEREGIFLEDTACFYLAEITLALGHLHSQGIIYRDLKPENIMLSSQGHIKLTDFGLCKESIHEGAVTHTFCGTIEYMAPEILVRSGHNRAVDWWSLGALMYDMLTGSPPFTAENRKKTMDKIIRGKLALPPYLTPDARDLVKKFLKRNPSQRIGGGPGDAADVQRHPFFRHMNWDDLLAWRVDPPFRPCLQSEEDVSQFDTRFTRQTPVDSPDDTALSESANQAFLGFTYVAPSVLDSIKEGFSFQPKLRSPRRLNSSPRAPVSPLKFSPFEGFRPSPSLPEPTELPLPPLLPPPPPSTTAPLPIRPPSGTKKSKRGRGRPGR
Description: as §1

CLK3 = CLK3 (Homo sapiens, UniProt P49761); conditions: CLK3, 1 µM; read-out: residual enzyme activity
Description: as §1

CDC7/DBF4 = CDC7/DBF4 (Homo sapiens, UniProt O00311); conditions: CDC7/DBF4, 1 µM; read-out: residual enzyme activity
Sequence of CDC7/DBF4 (O00311 whole entry, species assumed): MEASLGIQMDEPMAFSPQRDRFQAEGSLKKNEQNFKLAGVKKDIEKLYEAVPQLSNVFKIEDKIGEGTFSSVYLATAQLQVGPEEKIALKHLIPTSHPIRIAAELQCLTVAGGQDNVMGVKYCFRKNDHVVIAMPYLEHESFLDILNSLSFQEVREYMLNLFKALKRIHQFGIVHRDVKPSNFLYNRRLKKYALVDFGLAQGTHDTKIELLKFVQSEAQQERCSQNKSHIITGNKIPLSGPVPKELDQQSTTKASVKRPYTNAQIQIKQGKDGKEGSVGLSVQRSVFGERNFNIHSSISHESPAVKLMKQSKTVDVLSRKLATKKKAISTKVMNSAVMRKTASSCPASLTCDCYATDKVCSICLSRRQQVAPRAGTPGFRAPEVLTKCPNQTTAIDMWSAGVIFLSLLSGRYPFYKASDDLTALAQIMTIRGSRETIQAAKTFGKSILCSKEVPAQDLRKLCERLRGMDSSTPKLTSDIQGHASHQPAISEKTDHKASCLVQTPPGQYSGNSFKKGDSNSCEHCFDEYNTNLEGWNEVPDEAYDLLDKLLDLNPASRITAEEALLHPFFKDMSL
Sequence of CDC7/DBF4 (Q9UBU7 whole entry partner, species assumed): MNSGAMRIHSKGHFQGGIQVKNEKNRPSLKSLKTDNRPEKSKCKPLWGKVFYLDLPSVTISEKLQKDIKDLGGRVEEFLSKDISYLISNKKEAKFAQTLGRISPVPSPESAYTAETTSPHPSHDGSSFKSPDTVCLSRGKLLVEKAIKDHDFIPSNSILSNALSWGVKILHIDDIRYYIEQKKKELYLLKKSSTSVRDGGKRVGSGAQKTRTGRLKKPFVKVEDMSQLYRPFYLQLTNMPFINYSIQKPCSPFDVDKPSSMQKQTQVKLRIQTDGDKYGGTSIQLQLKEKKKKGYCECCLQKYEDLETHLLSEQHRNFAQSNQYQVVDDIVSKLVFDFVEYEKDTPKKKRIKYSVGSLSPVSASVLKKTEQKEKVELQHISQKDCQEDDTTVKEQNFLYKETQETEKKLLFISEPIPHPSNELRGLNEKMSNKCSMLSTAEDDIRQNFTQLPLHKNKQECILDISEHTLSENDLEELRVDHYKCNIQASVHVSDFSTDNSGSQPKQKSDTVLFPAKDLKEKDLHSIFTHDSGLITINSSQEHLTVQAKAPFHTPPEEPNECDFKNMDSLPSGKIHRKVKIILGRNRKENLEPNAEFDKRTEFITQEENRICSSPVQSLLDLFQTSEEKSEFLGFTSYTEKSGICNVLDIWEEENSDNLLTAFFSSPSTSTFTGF
Description: as §1

ASK1/MAP3K5 = ASK1/MAP3K5 (Homo sapiens, UniProt Q99683); conditions: ASK1/MAP3K5, 1 µM; read-out: residual enzyme activity
Description: as §1

C-SRC = C-SRC (Homo sapiens, UniProt P12931); conditions: read-out: residual enzyme activity
Description: as §1

MST2/STK3 = MST2/STK3 (Homo sapiens, UniProt Q13188); conditions: MST2/STK3, 1 µM; read-out: residual enzyme activity
Description: as §1

CHK1 = CHK1 (Homo sapiens, UniProt O14757); conditions: CHK1, 1 µM; read-out: residual enzyme activity
Description: as §1

TLK2 = TLK2 (Homo sapiens, UniProt Q86UE8); conditions: TLK2, 1 µM; read-out: residual enzyme activity
Description: as §1

TXK = TXK (Homo sapiens, UniProt P42681); conditions: read-out: residual enzyme activity
Description: as §1

PKG2/PRKG2 = PKG2/PRKG2 (Homo sapiens, UniProt Q13237); conditions: PKG2/PRKG2, 1 µM; read-out: residual enzyme activity
Description: as §1

TYRO3/SKY = TYRO3/SKY (Homo sapiens, UniProt Q06418); conditions: read-out: residual enzyme activity
Sequence of TYRO3/SKY (Q06418 41-890): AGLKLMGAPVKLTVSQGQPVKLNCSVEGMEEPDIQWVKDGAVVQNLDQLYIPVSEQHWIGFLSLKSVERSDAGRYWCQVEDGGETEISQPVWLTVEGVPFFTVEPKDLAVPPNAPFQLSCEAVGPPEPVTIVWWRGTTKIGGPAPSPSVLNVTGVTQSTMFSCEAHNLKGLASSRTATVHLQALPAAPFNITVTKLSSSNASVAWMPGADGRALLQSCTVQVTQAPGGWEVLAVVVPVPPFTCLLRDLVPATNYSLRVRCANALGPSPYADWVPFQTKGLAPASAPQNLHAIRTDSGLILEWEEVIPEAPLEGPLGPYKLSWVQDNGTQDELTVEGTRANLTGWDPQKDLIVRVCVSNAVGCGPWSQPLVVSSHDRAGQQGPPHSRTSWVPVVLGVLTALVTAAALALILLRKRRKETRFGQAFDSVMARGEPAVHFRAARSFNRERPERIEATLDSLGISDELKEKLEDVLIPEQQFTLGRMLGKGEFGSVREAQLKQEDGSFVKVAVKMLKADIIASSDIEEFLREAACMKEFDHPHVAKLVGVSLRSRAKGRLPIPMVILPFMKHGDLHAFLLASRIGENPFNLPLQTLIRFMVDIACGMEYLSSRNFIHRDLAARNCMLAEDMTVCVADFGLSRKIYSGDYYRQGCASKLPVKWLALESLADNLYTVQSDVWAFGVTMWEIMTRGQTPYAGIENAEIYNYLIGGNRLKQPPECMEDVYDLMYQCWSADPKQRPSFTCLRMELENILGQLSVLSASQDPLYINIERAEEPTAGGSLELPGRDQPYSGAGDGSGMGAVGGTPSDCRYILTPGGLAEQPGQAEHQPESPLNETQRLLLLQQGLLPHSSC
Description: as §1

RIPK5 = RIPK5 (Homo sapiens, UniProt Q6XUX3); conditions: RIPK5, 1 µM; read-out: residual enzyme activity
Description: as §1

SRPK2 = SRPK2 (Homo sapiens, UniProt P78362); conditions: SRPK2, 1 µM; read-out: residual enzyme activity
Sequence of SRPK2 (P78362 whole entry, species assumed): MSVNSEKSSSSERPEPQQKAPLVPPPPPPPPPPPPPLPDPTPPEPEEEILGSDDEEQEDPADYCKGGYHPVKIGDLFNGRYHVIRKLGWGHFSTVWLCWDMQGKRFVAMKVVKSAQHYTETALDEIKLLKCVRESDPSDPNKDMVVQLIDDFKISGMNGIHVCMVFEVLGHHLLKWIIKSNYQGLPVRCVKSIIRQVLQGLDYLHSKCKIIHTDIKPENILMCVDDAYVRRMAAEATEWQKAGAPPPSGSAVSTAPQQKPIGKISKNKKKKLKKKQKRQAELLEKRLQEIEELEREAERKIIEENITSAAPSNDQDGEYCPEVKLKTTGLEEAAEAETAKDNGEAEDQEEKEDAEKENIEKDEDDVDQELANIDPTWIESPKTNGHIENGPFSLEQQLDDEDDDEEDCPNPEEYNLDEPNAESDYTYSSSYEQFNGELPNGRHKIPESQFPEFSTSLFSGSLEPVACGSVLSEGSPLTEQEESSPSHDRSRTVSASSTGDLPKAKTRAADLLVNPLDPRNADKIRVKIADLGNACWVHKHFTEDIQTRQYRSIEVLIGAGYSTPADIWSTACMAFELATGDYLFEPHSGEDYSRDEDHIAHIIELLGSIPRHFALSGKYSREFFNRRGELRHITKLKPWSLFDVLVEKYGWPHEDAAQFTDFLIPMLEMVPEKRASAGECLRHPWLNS
Description: as §1

MLK1/MAP3K9 = MLK1/MAP3K9 (Homo sapiens, UniProt P80192); conditions: MLK1/MAP3K9, 1 µM; read-out: residual enzyme activity
Sequence of MLK1/MAP3K9 (P80192 whole entry): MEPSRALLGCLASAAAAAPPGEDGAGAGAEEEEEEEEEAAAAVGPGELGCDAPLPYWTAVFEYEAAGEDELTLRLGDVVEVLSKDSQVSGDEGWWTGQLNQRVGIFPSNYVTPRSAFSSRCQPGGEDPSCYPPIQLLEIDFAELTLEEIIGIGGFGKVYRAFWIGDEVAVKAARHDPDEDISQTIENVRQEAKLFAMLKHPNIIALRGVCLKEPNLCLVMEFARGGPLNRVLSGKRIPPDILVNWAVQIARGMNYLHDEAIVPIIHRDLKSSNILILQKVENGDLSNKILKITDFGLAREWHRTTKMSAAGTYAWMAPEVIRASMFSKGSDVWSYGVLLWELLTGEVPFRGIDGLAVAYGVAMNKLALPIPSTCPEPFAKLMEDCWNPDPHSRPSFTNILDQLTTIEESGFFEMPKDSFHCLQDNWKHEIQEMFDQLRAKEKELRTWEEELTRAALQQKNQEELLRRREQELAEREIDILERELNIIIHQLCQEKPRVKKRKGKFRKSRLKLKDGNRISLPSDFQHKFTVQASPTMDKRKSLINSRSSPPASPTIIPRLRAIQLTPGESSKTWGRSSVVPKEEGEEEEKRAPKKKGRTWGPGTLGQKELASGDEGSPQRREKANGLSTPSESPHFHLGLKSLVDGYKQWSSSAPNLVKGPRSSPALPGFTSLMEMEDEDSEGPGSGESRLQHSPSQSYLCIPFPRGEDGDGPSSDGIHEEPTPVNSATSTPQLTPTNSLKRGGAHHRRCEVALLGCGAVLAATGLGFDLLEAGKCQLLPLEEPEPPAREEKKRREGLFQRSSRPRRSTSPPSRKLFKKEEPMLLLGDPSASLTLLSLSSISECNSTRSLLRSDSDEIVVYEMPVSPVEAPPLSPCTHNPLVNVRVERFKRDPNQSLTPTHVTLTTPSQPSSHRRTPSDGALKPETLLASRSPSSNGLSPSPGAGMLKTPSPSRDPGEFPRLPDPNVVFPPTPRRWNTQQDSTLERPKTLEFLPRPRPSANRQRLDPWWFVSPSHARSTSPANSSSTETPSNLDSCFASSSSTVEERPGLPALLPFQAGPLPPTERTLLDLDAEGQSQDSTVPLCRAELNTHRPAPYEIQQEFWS
Description: as §1

ZAP70 = ZAP70 (Homo sapiens, UniProt P43403); conditions: ZAP70, 1 µM; read-out: residual enzyme activity
Description: as §1

GRK6 = GRK6 (Homo sapiens, UniProt P43250); conditions: GRK6, 1 µM; read-out: residual enzyme activity
Description: as §1

MEK2 = MEK2 (Homo sapiens, UniProt P36507); conditions: MEK2, 1 µM; read-out: residual enzyme activity
Description: as §1

PLK1 = PLK1 (Homo sapiens, UniProt P53350); conditions: PLK1, 1 µM; read-out: residual enzyme activity
Description: as §1

DYRK1/DYRK1A = DYRK1/DYRK1A (Homo sapiens, UniProt Q13627); conditions: read-out: residual enzyme activity
Description: as §1

MARK1 = MARK1 (Homo sapiens, UniProt Q9P0L2); conditions: MARK1, 1 µM; read-out: residual enzyme activity
Description: as §1

CDK2/CYCLIN E2 = CDK2/CYCLIN E2 (Homo sapiens, UniProt P24941); conditions: CDK2/cyclin E2, 1 µM; read-out: residual enzyme activity
Description: as §1

NIM1 = NIM1 (Homo sapiens, UniProt Q8IY84); conditions: NIM1, 1 µM; read-out: residual enzyme activity
Description: as §1

CAMKK1 = CAMKK1 (Homo sapiens, UniProt Q8N5S9); conditions: CAMKK1, 1 µM; read-out: residual enzyme activity
Description: as §1

TTBK1 = TTBK1 (Homo sapiens, UniProt Q5TCY1); conditions: TTBK1, 1 µM; read-out: residual enzyme activity
Description: as §1

CDK4/CYCLIN D1 = CDK4/CYCLIN D1 (Homo sapiens, UniProt P11802); conditions: CDK4/cyclin D1, 1 µM; read-out: residual enzyme activity
Description: as §1

SGK1 = SGK1 (Homo sapiens, UniProt O00141); conditions: SGK1, 1 µM; read-out: residual enzyme activity
Description: as §1

DRAK1/STK17A = DRAK1/STK17A (Homo sapiens, UniProt Q9UEE5); conditions: read-out: residual enzyme activity
Description: as §1

CDK2/CYCLIN A1 = CDK2/CYCLIN A1 (Homo sapiens, UniProt P24941); conditions: CDK2/Cyclin A1, 1 µM; read-out: residual enzyme activity
Description: as §1

PRKX = PRKX (Homo sapiens, UniProt P51817); conditions: read-out: residual enzyme activity
Sequence of PRKX (P51817 whole entry, species assumed): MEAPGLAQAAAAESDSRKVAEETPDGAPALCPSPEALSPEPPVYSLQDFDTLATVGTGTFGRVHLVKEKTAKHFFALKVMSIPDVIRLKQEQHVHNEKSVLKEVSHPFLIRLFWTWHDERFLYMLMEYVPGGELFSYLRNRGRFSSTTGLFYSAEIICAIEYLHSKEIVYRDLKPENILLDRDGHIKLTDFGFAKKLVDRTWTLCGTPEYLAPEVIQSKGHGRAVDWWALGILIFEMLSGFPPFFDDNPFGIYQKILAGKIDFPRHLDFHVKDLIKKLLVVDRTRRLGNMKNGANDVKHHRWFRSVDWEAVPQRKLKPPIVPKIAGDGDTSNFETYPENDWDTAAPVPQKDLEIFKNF
Description: as §1

| Compound | remaining activity at 1 µM (EPHB1) | remaining activity at 1 µM (TAOK3/JIK) | remaining activity at 1 µM (CLK3) | remaining activity at 1 µM (CDC7/DBF4) | remaining activity at 1 µM (ASK1/MAP3K5) | remaining activity at 1 µM (MST2/STK3) | remaining activity at 1 µM (CHK1) | remaining activity at 1 µM (TLK2) | remaining activity at 1 µM (TXK) | remaining activity at 1 µM (PKG2/PRKG2) | remaining activity at 1 µM (TYRO3/SKY) | remaining activity at 1 µM (RIPK5) | remaining activity at 1 µM (SRPK2) | remaining activity at 1 µM (MLK1/MAP3K9) | remaining activity at 1 µM (ZAP70) | remaining activity at 1 µM (GRK6) | remaining activity at 1 µM (MEK2) | remaining activity at 1 µM (PLK1) | remaining activity at 1 µM (DYRK1/DYRK1A) | remaining activity at 1 µM (MARK1) | also measured |
| --- | --- | --- | --- | --- | --- | --- | --- | --- | --- | --- | --- | --- | --- | --- | --- | --- | --- | --- | --- | --- | --- |
| Cc1cn(-c2cc(C(=O)Nc3ccc(C)c(N4Cc5cnc(NC6CC6)nc5C5(CC5)C4=O)c3)cc(C(F)(F)F)c2)cn1 [Compound 8, N-(3-(2'-(cyclopropylamino)-7'-oxo-5'H-spiro[cyclopropane-1,8'-pyrido[4,3-d]pyrimidine]-6'(7'H)-yl)-4-methylphenyl)-3-(4-methyl-1H-imidazol-1-yl)-5-(trifluoromethyl)benzamide] | ≤ 40% | ≤ 40% | > 40% | > 40% | > 40% | > 40% | > 40% | > 40% | ≤ 40% | > 40% | > 40% | > 40% | > 40% | > 40% | > 40% | > 40% | > 40% | > 40% | > 40% | > 40% | remaining activity at 1 µM (GSK3A; GSK3A): > 40%; remaining activity at 1 µM (P70S6KB/RPS6KB2; P70S6KB/RPS6KB2, 1 µM): > 40%; remaining activity at 1 µM (C-SRC; C-SRC): ≤ 40%; remaining activity at 1 µM (CDK2/CYCLIN E2): > 40%; remaining activity at 1 µM (NIM1): > 40%; remaining activity at 1 µM (CAMKK1): > 40%; remaining activity at 1 µM (TTBK1): > 40%; remaining activity at 1 µM (CDK4/CYCLIN D1): > 40%; remaining activity at 1 µM (SGK1): > 40%; remaining activity at 1 µM (DRAK1/STK17A): > 40%; remaining activity at 1 µM (CDK2/CYCLIN A1): > 40%; remaining activity at 1 µM (PRKX): > 40% |
| Cc1ccc(Nc2ncc3c(n2)C2(CC2)C(=O)N(c2cc(NC(=O)c4cccc(C(F)(F)F)c4)ccc2C)C3)cn1 [Compound 51, N-(4-methyl-3-(2'-((6-methylpyridin-3-yl)amino)-7'-oxo-5'H-spiro[cyclopropane-1,8'-pyrido[4,3-d]pyrimidine]-6'(7'H)-yl)phenyl)-3-(trifluoromethyl)benzamide] | ≤ 40% | ≤ 40% | > 40% | > 40% | > 40% | > 40% | > 40% | > 40% | ≤ 40% | > 40% | ≤ 40% | > 40% | > 40% | ≤ 40% | > 40% | > 40% | > 40% | > 40% | > 40% | > 40% | remaining activity at 1 µM (GSK3A; GSK3a): > 40%; remaining activity at 1 µM (P70S6KB/RPS6KB2; p70S6Kb/RPS6KB2, 1 µM): > 40%; remaining activity at 1 µM (C-SRC; c-Src): ≤ 40%; remaining activity at 1 µM (CDK2/CYCLIN E2): > 40%; remaining activity at 1 µM (NIM1): > 40%; remaining activity at 1 µM (CAMKK1): > 40%; remaining activity at 1 µM (TTBK1): > 40%; remaining activity at 1 µM (CDK4/CYCLIN D1): > 40%; remaining activity at 1 µM (SGK1): > 40%; remaining activity at 1 µM (DRAK1/STK17A): > 40%; remaining activity at 1 µM (CDK2/CYCLIN A1): > 40%; remaining activity at 1 µM (PRKX): > 40% |
